Patent US7968097B2, “Identification of Hla-A2-presented T-cell epitopes derived from the oncofoetal antigen-immature laminin receptor protein and uses thereof” (Immatics Biotechnologies GmbH, priority 2005, dated 2011)
Several values for one entry are separate records, joined by “and”; a condition that tells them apart may be missing. Equal values may be shown once. Entries after “also recorded” stand apart in the source; their conditions may differ.

Columns and labels:
[1] = system: tumor cells from AML patients; assay: 51Chromium release assay, peptide-specific CTL on tumor cells from AML patients; format: cell-based, human; conditions: for recognition of AML cells from A*02-negative patients by peptide-specific T cells / recognition of AML cells from A*02-positive patients by peptide-specific T cells: 1st and 2nd experiment; for A*02-positive AML patients in whom the peptide is a tumor-associated antigen: summary of two sets of experiments
Source text: (§1) CTL derived from healthy HLA-A*0201^+ individuals were generated using a protocol described elsewhere (Zeis M, Siegel S, Schmitz M et al. Induction of cytotoxic T lymphocytes against hematologic neoplasms by survivin RNA-transfected dendritic cells. J Immunol. 2003; 170, 5391-5397.). For the induction of autologous OFA/ILR, peptide-specific CTL obtained from patients with AML and CLL, CD8^+ T cells were separated from PBMC using immunomagnetic beads (MACS®, Miltenyi, Bergisch-Gladbach, Germany), cultured with autologous OFA/iLR peptide-pulsed fully matured DC and restimulated with autologous peptide-pulsed PBMC in the presence of IL-2 (1 ng/ml, CellConcepts, Weisskirch, Germany). After at least four weekly restimulations, CTL reactivity was determined in a conventional 4 h ^51Chromium release assay. Cold target inhibition assays and antibody blocking experiments were performed as previously described (Zeis M, Siegel S, Schmitz M et al. Induction of cytotoxic T lymphocytes against hematologic neoplasms by survivin RNA-transfected dendritic cells. J Immunol. 2003; 170, 5391-5397.).
T cells specific for HLA-A*02-restricted ILR1 were tested on tumor cells from AML patients (4 patients; samples AML-01, -02, -03, -06) (FIG. 4A). Cells from A*02-positive patients (3/4) were recognized with maximum lysis at an E:T ratio of 40:1 ranging between 25,9% and 39,8%.
T cells specific for HLA-A*02-restricted ILR1 were tested on tumor cells from AML patients for a second time to confirm the results obtained in the 1st experiment (9 patients; samples AML-01, -02, -04, -05, -06, -07, -09, -10, -12).
T cells specific for HLA-A*02-restricted ILR2 were tested on tumor cells from AML patients (8 patients; samples AML-01, -02, -04, -05, -06, -07, -10, -12). […] The experiment was conducted a 2nd time with samples from patients […]. In this 2nd experiment, T cells specific for HLA-A*02-restricted ILR2 were tested again on tumor cells from AML patients (4 patients; samples AML-01, -02, -03, -06).

[2] = system: hematological tumor cell lines (K562, IM9, Karpas-422, Balm-3, U266, REH, Ramos, MEC-1); assay: 51Chromium release assay, peptide-specific CTL on tumor cell lines; format: cell-based, human; conditions: for cytolytic activity of peptide-specific CTL lines: HLA-A*0201+ hematological tumor lines, primary malignant AML blasts and CLL cells; for recognition of cell lines by peptide-specific T cells: K562, IND/IM9, Karpas-422, Balm-3, U266, REH, MEC-1, Ramos also for ILR2
Source text: as §1
T cells recognizing the ILR1-peptide were tested on K562 [human pro-erythroblastic leukemia cell-line, also known as chronic myelogenous leukemia (CML) cell line, which, due to extremely low levels of HLA, functions as a control for excluding NK cells as effector cells], IND (human B lymphoblastoid cell line), Karpas-422 (human B cell lymphoma), Balm-3 (human non-Burkitt B-lymphoma cell line), U266 (human multiple myeloma), REH (Human B cell precursor leukemia), MEC-1 (human chronic B cell leukemia). The same T cells were used to test autologous and allogeneic PBMC from healthy donors as controls. […] The response is not directed against allogeneic major or minor histocompatibility complex antigens. • 3. ILR1 peptide is recognized in an HLA-restricted fashion. • 4. The restriction is allele-specific (specific for A*02). Target: AML
T cells recognizing the ILR2-peptide (FIG. 6) were tested on K562 [human proerythroblastic leukemia cell-line, also known as chronic myelogenous leukemia (CML) cell line, which, due to extremely low levels of HLA, functions as a control for excluding NK cells as effector cells], IM9 (human B lymphoblastoid cell line), Karpas-422 (human B cell lymphoma), Balm-3 (human non-Burkitt B-lymphoma cell line), U266 (human multiple myeloma), REH (Human B cell precursor leukemia), Ramos (synonym: RA 1; a human Burkittt's lymphoma B lymphoblast), MEC-1 (human chronic B cell leukemia). The same T cells were used to test autologous and allogeneic PBMC from healthy donors as controls.

[3] = system: PBMC of HLA-A*02 positive myeloma patients; assay: IFN-γ ELISPOT, myeloma patients; conditions: for # of positively stained spots (IFN-γ ELISPOT): Myeloma patients, HLA-A*02 positive, one value per patient (table line), T cells cultured seven days with IL-2; for samples with significant (>20) CTL responses against peptide: myeloma patient samples, IFN-γ ELISPOT
Protocol: (§2) To determine the frequency of OFA/iLR peptide-specific T cells in patients, ELISPOT-assays were performed using the Interferon-γ-ELISPOT-Kit (Becton Dickinson, Heidelberg, Germany) according to manufacturer's instructions.
(§3) Prior to analysis, T cells from patients and healthy donors had been kept in culture for seven days in the presence of Interleukin-2 (IL microgram/10^6 PBMC/milliliter).

[4] = system: peptide-pulsed 51Cr-labelled T2 cells; assay: Cold target inhibition assay; format: cell-based, human
Source text: as §1
A cold target inhibition assay was performed. To examine whether ILR1-specific T cells lyse ILR1 peptide-pulsed T2 cells specifically and in the context of HLA-A*02, cold target inhibition assays were performed as follows: ^51Cr-labelled T2 cells were loaded with peptide in a concentration of 10 microgram peptide/10^6 T2 cells/ml. A total of 2×10^5 unlabelled, T2 cells, which had equally been loaded with the same or a control peptide, were then added in a volume of 50 microliter AIMV to 10^4 peptide-pulsed, ^51Cr-labelled T2 cells. Effector T cells specific for ILR1 were added and a ^51Cr-release assay was performed as described above.
A cold target inhibition assay was performed as described under “T2+ILR1” above.

[5] = system: PBMC of HLA-A*02 positive AML patients; assay: IFN-γ ELISPOT, AML patients; conditions: for samples with significant (>20) CTL responses against peptide: AML patient samples, IFN-γ ELISPOT; for # of positively stained spots (IFN-γ ELISPOT): AML patients, HLA-A*02 positive, one value per patient (table line), T cells cultured seven days with IL-2
Protocol: as §2, §3

HLA-A*0201 = molecular target: T1, HLA-A*0201 (Homo sapiens, UniProt P04439, /I218V/L300P/L318F/N151K/N90K/P208A/P217A/Q86G/Q94H/R138H/R169H/T345S); assay: T2 whole cell-binding assay (in vitro reconstitution assay, TAP-deficient T2 cell line); conditions: compared with the Flu nucleoprotein58-66
T1 construct: using the TAP (transporter associated with antigen processing)-deficient T2 cell line; host or cells: T2 (human, TAP-deficient)

[6] = system: T cells of CLL patients (Binet A); assay: IL-10-secreting peptide-specific T cells in CLL patients with early disease; format: cell-based, human; conditions: small series of CLL patients with early disease (Binet A); data not shown
Source text: The inventors are currently involved with experiments to elucidate more precisely a possible relationship between the occurrence of anti-OFA/iLRP-specific T cells secreting IFN-γ or IL10 and the stage of disease in patients with CLL and multiple myeloma.

peptide-pulsed T2 cells = assay: Lysis of peptide-pulsed T2 target cells by peptide-specific CTL (peptide titration); format: cell-based, human; conditions: for affinity of peptide-specific CTL to the peptide/MHC complex: peptide titration curves
[7] = hot target ILR1-peptide-pulsed T2, effectors ILR1-specific CTL, 10 microgram peptide/10^6 T2 cells/ml
[8] = hot target ILR2-peptide-pulsed T2, effectors ILR2-specific CTL

Sequence | recognition of AML cells from A*02-negative patients by peptide-specific T cells [1] | recognition of AML cells from A*02-positive patients by peptide-specific T cells [1] | A*02-positive AML patients in whom the peptide is a tumor-associated antigen [1] [%] | cytolytic activity of peptide-specific CTL lines [2] | recognition of cell lines by peptide-specific T cells [2] | # of positively stained spots (IFN-γ ELISPOT) [3] | samples with significant (>20) CTL responses against peptide [3] [%] | competition of cold targets loaded with the peptide for lysis [4, 7] | competition of cold targets loaded with the peptide for lysis [4, 8] | samples with significant (>20) CTL responses against peptide [5] [%] | # of positively stained spots (IFN-γ ELISPOT) [5] | binding affinity to HLA-A*0201 (HLA-A*0201) | IL-10-secreting T cells specific for the peptide [6] | recognition/lysis of T2 cells pulsed with the peptide (peptide-pulsed T2 cells; effectors: T cells specific for ILR2) | affinity of peptide-specific CTL to the peptide/MHC complex (peptide-pulsed T2 cells) | recognition/lysis of T2 cells pulsed with the peptide (peptide-pulsed T2 cells; effectors: T cells specific for ILR1)
ALCNTDSPL (listed as Homo sapiens) [ILR2] | not recognized (4/4); also recorded: not recognized (0/1) | recognized in all cases (4/4) | 100 | strong cytolytic activity | All cell lines except Ramos and MEC-1, which do not express the HLA-A*02 allele, and K562, which is deficient for HLA class I gene expression in general, were recognized | 0 per 105 PBMC (4×) and 1 per 105 PBMC (2×) and 3 per 105 PBMC (2×) and 34 per 105 PBMC (3×) and 27 per 105 PBMC and 23 per 105 PBMC and 112 per 105 PBMC | 43 | neither peptides irrelevant for ILR1-specific CTL (Survivin and ILR2), nor unloaded T2 cells, which display empty HLA-A*02 molecules on their cell surfaces, compete for lysis | compete with the primary target cells | 47 | 0 per 105 PBMC (4×) and 1 per 105 PBMC (2×) and 3 per 105 PBMC (2×) and 34 per 105 PBMC (3×) and 27 per 105 PBMC and 23 per 105 PBMC and 112 per 105 PBMC and 32 per 105 PBMC | strong binding affinity | no relevant IL-10-secreting T cells | lysed in a dose-dependent fashion | high affinity | 
LLAARAIVAI (listed as Homo sapiens) [ILR1] | not recognized (4/4) | recognized in all cases | 100 | strong cytolytic activity | All cell lines except MEC-1, which does not express the HLA-A*02 allele, and K562, which is deficient for HLA class I gene expression in general, were recognized | 3 per 105 PBMC and 4 per 105 PBMC and 56 per 105 PBMC (2×) and 76 per 105 PBMC and 43 per 105 PBMC and 22 per 105 PBMC and 23 per 105 PBMC (2×) and 0 per 105 PBMC (2×) and 112 per 105 PBMC and 1 per 105 PBMC | 57 | compete with the primary target cells | neither peptides irrelevant for ILR2-specific CTL (Survivin and ILR1), nor unloaded T2 cells, which display empty HLA-A*02 molecules on their cell surfaces, compete for lysis | 40 | 2 per 105 PBMC (3×) and 3 per 105 PBMC (2×) and 1 per 105 PBMC (2×) and 4 per 105 PBMC and 5 per 105 PBMC and 56 per 105 PBMC and 54 per 105 PBMC and 34 per 105 PBMC (2×) and 33 per 105 PBMC and 25 per 105 PBMC | strong binding affinity | no relevant IL-10-secreting T cells |  | high affinity | lysed in a dose-dependent fashion
